13 compounds from patent US4806547A, “Isoquinoline derivatives, analgesic compounds thereof and method of treating pain” (Dr. Lo. Zambeletti SPA, priority 1986, dated 1989) can be followed below.

One experiment relates to mice. Kind of experiment: Mouse Tail-flick test (analgesic activity). Type of experiment: in vivo, mouse (male Charles River). As to conditions: 30 min after dosing; for ED50: Mus musculus, sc, 0.5 h, s.c., mice doubling the initial reaction time. The method, then:
Mouse Tail-flick test (Modified from the procedure published by D'Amour et al., J. Pharm. Exptl. Ther.72, 74/1941).
Male Charles River mice, average weight 26 g, are used. Selection is carried out before beginning of experiments: only mice whose reaction time is less than 8 sec are used. They are randomly distributed into groups of 10 and dosed with compounds under test, with positive and negative controls being included.
Compounds under test are administered subcutaneously in isotonic saline in a volume of 20 ml. Kg^-1. 30 min later mice are placed again under heat source (Socrel apparatus) and reaction time is recorded.
The analgesic activity of the test compound is expressed as the percent number of mice doubling the initial time within a group. [formula]

Experiment [1] deals with μ opioid receptor (μ sites) (Cavia porcellus, UniProt A0ACM8Q262). Put plainly: Receptor binding to μ sites (3H-DAGO). The method, then:
Radio receptor binding to μ and K sites is performed on fresh guinea pig brain homogenate prepared according to Kosterlitz.
(§1) Whole brain without cerebellum is homogenized in 50 mM, Tris-buffer (pH 7.4 at 0° C.) and centrifuged at 49,000×g×10 min.
(§2) The pellet is then resuspended in the same buffer, incubated at 37° C. for 45 min. and centrifuged again.
(§3) 1.9 ml of the final homogenate (1:100 in Tris-pH 7.4, 0° C.) is used for the binding assay.
^3 H[D--Ala^2, MePhe^4, Gly--ol^5 ]
The filters are then dryed, solubilized in Filtercount and the radioactivity monitored. Non specific binding is determined in the presence of 10^-6 M Naloxone.
(§4) A concentration of radioligand near KD is used in the binding assays evaluating our compounds.

For experiment [2], the target named is T1, K (Kappa) opioid receptor (K sites) (Cavia porcellus, UniProt P41144).
T1 construct: fresh guinea pig brain homogenate; from tissue; host or cells: guinea pig whole brain without cerebellum, homogenate
T1 sequence (P41144 whole entry): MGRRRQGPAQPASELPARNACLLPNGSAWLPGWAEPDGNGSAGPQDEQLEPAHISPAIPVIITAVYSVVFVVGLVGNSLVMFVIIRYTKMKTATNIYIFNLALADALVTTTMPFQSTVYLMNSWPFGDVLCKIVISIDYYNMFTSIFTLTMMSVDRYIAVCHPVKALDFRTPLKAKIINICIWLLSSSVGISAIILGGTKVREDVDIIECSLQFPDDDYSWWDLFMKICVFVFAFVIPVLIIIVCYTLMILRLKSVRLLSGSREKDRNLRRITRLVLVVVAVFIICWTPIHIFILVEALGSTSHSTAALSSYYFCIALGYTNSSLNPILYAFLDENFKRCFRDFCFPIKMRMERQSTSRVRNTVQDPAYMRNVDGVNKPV
Kind of experiment: Receptor binding to K sites (tritiated Ethylketocyclazocine). Also noted: species or system guinea pig. The method, then:
Radio receptor binding to μ and K sites is performed on fresh guinea pig brain homogenate prepared according to Kosterlitz. (1981).
as §1, §2, §3
Binding to K sites (Magnan J., 1982)
The binding of tritiated Ethylketocyclazocine to brain homogenate is measured in the presence of 100 nanomolar D--Ala--D--LeuEnkephalin (DADLE) and 100 nanomolar DAGO, added to saturate the δ and μ opioid receptors respectively.
Final homogenate with solutions of the cold ligand and of the labelled ligand is incubated for 40 min. at 25° C., filtered through Whatman GF/C glass filter discs and washed.
The radioactivity bound to the filters is counted by liquid scintillation spectrophotometry.
MR 2266.500 nM is utilized to determine the saturable binding.
For the calculation of the kinetic parameters of the binding of labelled and unlabelled ligands, the equilibrium dissociation constant (KD), the inhibition constant (Ki) and the maximum number of binding sites (B max) are determined from saturation curves and competition experiments (Hill 1910; Scatchard 1949; Cheng and Prusoff 1973); Gillan et al. 1980).
as §4

Where [3] appears, read: guinea pig brain homogenate, 25° C., 40 min, read-out: RECEPTOR BINDING Ki μ.
The mark [4] stands for this setting: read-out: RECEPTOR BINDING Ki K, guinea pig brain homogenate, tritiated Ethylketocyclazocine with 100 nM DADLE and 100 nM DAGO, 25° C., 40 min.
[5] abbreviates: read-out: RECEPTOR BINDING Ki μ, guinea pig brain homogenate, 25° C., 40 min.

Structures can show the parent of a compound that is named as a salt. Where two headings read alike, the source gives them in different places. A value given as a limit tells only on which side of the number the result lay.

Chain of μ opioid receptor (μ sites) (A0ACM8Q262 1-400): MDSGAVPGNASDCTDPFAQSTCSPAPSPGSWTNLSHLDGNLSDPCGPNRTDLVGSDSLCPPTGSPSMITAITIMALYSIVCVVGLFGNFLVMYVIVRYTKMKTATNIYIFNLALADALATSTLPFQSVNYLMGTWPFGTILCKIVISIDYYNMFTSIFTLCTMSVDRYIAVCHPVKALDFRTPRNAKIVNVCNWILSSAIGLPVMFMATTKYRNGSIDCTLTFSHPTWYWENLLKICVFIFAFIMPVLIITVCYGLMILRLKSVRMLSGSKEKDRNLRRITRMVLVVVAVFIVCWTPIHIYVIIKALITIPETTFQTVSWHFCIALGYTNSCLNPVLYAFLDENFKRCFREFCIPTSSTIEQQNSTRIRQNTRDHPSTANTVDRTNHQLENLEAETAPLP

Take `O=C(Cc1ccc(C(F)(F)F)cc1)N1CCc2ccccc2C1CN1CCCC1` (stereo not drawn) [Example 14, 1-(1-pyrrolidinylmethyl)-2-(4-trifluoromethylacetyl)-1,2,3,4-tetrahydroisoquinoline hydrochloride]: in the experiment with mice, the ED50 (as a rule, the dose at which the effect has come halfway, by size or by number of responders) was found to be 0.33 mg/kg.

As to `O=C(Cc1ccccc1[N+](=O)[O-])N1CCc2ccccc2C1CN1CCCC1` (stereo not drawn) [Example 13, 1-(1-pyrrolidinylmethyl)-2-(2-nitrophenylacetyl)-1,2,3,4-tetrahydroisoquinoline hydrochloride hemihydrate], the Ki (in general, a measure of affinity in units of concentration, obtained from inhibition or displacement) stood at 1850 nM in experiment [1] (setting [3]) and 7.94 nM in experiment [2] (setting [4]).

Consider `N#Cc1ccc(CC(=O)N2CCc3ccccc3C2CN2CCCC2)cc1` (stereo not drawn) [Example 15, 1-(1-pyrrolidinylmethyl)-2-(4-cyanophenylacetyl)-1,2,3,4-tetrahydroisoquinoline hydrochloride sesquihydrate], for which the “MOUSE TAIL FLICK % protection” value with mice (at 1 mg/kg s.c.) amounted to 70%.

As for `CN(C)CC1c2ccccc2CCN1C(=O)Cc1ccc([N+](=O)[O-])cc1` (stereo not drawn) [Example 5, 1-dimethylaminomethyl-2-(nitrophenylacetyl)-1,2,3,4-tetrahydroisoquinoline hydrochloride hemihydrate], the figures for the inhibition constant (Ki) in experiment [1] (setting [3]) and in experiment [2] (setting [4]) were 655 nM and 5.72 nM, respectively. In addition, it took a dose of 0.23 mg/kg to reach the 50% effect level in the experiment on mice (ED50).

Regarding `CN(C)CC1c2ccccc2CCN1C(=O)Cc1ccc(Br)cc1` (stereo not drawn) [Example 4, 2-(4-bromophenylacetyl)-1-dimethylaminomethyl-1,2,3,4-tetrahydroisoquinoline hydrochloride], the figures for the Ki in experiment [1] (setting [3]) and in experiment [2] were 597 nM and 3.19 nM, respectively. For the same compound, it took a dose of 0.25 mg/kg to reach the 50% effect level with mice (ED50).

For `CN(C)CC1c2ccccc2CCN1C(=O)Cc1ccc(Cl)c(Cl)c1` (stereo not drawn) [Example 1, 1-dimethylaminomethyl-2-(3,4-dichlorophenyl)-acetyl-1,2,3,4-tetrahydroisoquinoline hydrochloride], the Ki in experiment [1] (setting [5]) was 415 nM; in experiment [2] (guinea pig brain homogenate, tritiated Ethylketocyclazocine with 100 nM DADLE and 100 nM DAGO, 25° C., 40 min, read-out: RECEPTOR BINDING Ki K) it was 1.59 nM. Besides, it took a dose of 0.041 mg/kg to reach the 50% effect level with mice (ED50).

Compound `O=C(Cc1ccc(Cl)c(Cl)c1)N1CCc2ccccc2C1CN1CCCC1` (single isomer, unassigned) [Example 9, (-)-1-[1-pyrrolidinylmethyl)-2-(3,4-dichlorophenylacetyl)-1,2,4-tetrahydroisoquinoline (-)-tartrate] came in with a 50% effective dose (ED50) in the experiment on mice of 0.009 mg/kg.

Consider `CN(C)CC1c2ccccc2CCN1C(=O)Cc1ccc(Cl)c(Cl)c1` (single isomer, unassigned) [Example 3, hemihydrate], for which the values for the Ki in experiment [1] (setting [5]) and in experiment [2] were 286 nM and 2.37 nM, respectively. This compound yielded a 50% effective dose (ED50) in the experiment with mice of 0.032 mg/kg.

`O=C(Cc1cccc([N+](=O)[O-])c1)N1CCc2ccccc2C1CN1CCCC1` (stereo not drawn) [Example 12, 1-(1-pyrrolidinylmethyl)-2-(3-nitrophenylacetyl)-1,2,3,4-tetrahydroisoquinoline hydrochloride hydrate] showed an ED50 with mice of 0.23 mg/kg.

Take `O=C(Cc1ccc([N+](=O)[O-])cc1)N1CCc2ccccc2C1CN1CCCC1` (stereo not drawn) [Example 11, 1-(1-pyrrolidinylmethyl)-2-(4-nitrophenylacetyl)-1,2,3,4-tetrahydroisoquinoline hydrochloride hemihydrate]: the values for the Ki in experiment [1] (setting [5]) and in experiment [2] (setting [4]) were 62 nM and 0.64 nM, respectively. Further, in the experiment with mice, the ED50 was 0.016 mg/kg.

Take `CN(C)CC1c2ccccc2CCN1C(=O)Cc1ccccc1[N+](=O)[O-]` (stereo not drawn) [Example 6, 1-dimethylaminomethyl-2-(2-nitrophenylacetyl)-1,2,3,4-tetrahydroisoquinoline hydrochloride hemihydrate]: the Ki in experiment [1] (setting [3]) is greater than 10000 nM; in experiment [2] (setting [4]) it was 30.6 nM.

In the experiment on mice, `O=C(Cc1ccc(Cl)c(Cl)c1)N1CCc2ccccc2C1CN1CCCC1` (stereo not drawn) [Example 7, 1-[1-pyrrolidinylmethyl)-2-(3,4-dichlorophenylacetyl)-1,2,3,4-tetrahydroisoquinoline hydrochloride] showed an ED50 of 0.016 mg/kg.

For the compound `O=C(Cc1ccc(Br)cc1)N1CCc2ccccc2C1CN1CCCC1` (stereo not drawn) [Example 10, 1-(1-pyrrolidinylmethyl)-2-(4-bromophenylacetyl)-1,2,3,4-tetrahydroisoquinoline hydrochloride], the figures for the Ki in experiment [1] (setting [5]) and in experiment [2] were 50 nM and 0.57 nM, respectively. This compound came in with an ED50 in the experiment on mice of 0.031 mg/kg.
